Data published in US9226912B2, “Acetyltanshinone IIA (ATA) as anticancer agent” (Nanyang Technological University, priority 2011, dated 2016).

Experiments:
ESR1 mRNA in MCF-7 cells = assay: Real-time PCR of ESR1 mRNA level; conditions: 100 pM estrogen plus 6 μM compound
Protocol: MCF-7 cells cultured in the charcoal-stripped medium were used as control for the 0 h sample.

HepG2 = assay: IC50 of ATA at 72 h; assay type: cell-based; conditions: Homo sapiens, HepG2 liver cancer cells
Protocol: (§1) The cytotoxcitiy of ATA was assessed in cancer cell lines and normal cells. In order to do so the IC50 of ATA at 72 h in multiple cancer cell lines or normal cell lines including muscle and fibroblast cells was evaluated.

HeLa = assay: IC50 of ATA at 72 h; assay type: cell-based; conditions: Homo sapiens, HeLa cervical cancer cells
Protocol: as §1

K-562 = assay: IC50 of ATA at 72 h; assay type: cell-based; conditions: Homo sapiens, K562, K-562 leukaemia cells
Protocol: as §1

HCT 116 = assay: IC50 of ATA at 72 h; assay type: cell-based; conditions: Homo sapiens, HCT 116 colorectal adenocarcinoma
Protocol: as §1

HCT 15 = assay: IC50 of ATA at 72 h; assay type: cell-based; conditions: Homo sapiens, HCT 15 colorectal adenocarcinoma
Protocol: as §1

IMR-90 (non-cancerous) = assay: IC50 of ATA at 72 h; assay type: cell-based; conditions: Homo sapiens, IMR-90 fibroblast (normal lung cells)
Protocol: as §1

C2C12 (non-cancerous) = assay: IC50 of ATA at 72 h; assay type: cell-based; conditions: Mus musculus, C2C12 myoblast (normal muscle cells)
Protocol: as §1

Caco2 = assay: IC50 of ATA at 72 h; assay type: cell-based; conditions: Homo sapiens, Caco-2, Caco2 colorectal adenocarcinoma
Protocol: as §1

SK-N-SH = assay: IC50 of ATA at 72 h; assay type: cell-based; conditions: Homo sapiens, SK-N-SH neuroblastoma
Protocol: as §1

A549 = assay: IC50 of ATA at 72 h; assay type: cell-based; conditions: Homo sapiens, A549 lung cancer cells
Protocol: as §1

`CC(=O)Oc1c(OC(C)=O)c2c(C)coc2c2ccc3c(c12)CCCC3(C)C` [ATA, 1,6,6-trimethyl-8,9-dihydro-10,11-diacetoxyl-7H-naphtho[1,2-g][1]benzofuran] was tested, and the “level of ESR1 mRNA over control” value (ESR1 mRNA in MCF-7 cells; 12 h, charcoal-stripped medium) was 55%, the “level of ESR1 mRNA over control” value (ESR1 mRNA in MCF-7 cells; 24 h, charcoal-stripped medium) was 31% and the “level of ESR1 mRNA over control” value (ESR1 mRNA in MCF-7 cells; 24 h, normal medium) was “about 30%”. For the same molecule, the “level of ESR1 mRNA over control” value (ESR1 mRNA in MCF-7 cells; 36 h and 48 h, charcoal-stripped medium) was “about 50%”, the IC50 (HepG2) was 4270 ± 730 nM and the IC50 (HeLa) was 690 ± 190 nM. It also gave an IC50 (K-562) of 1690 ± 340 nM, an IC50 (HCT 116) of 2280 ± 490 nM and an IC50 (HCT 15) of 560 ± 80 nM. The IC50 (IMR-90 (non-cancerous)) was 15500 ± 710 nM, the IC50 (C2C12 (non-cancerous)) was 10200 ± 1440 nM and the IC50 (Caco2) was 2500 ± 450 nM. It also gave an IC50 (SK-N-SH) of 1240 ± 120 nM and an IC50 (A549) of 810 ± 130 nM.
